The subject of data set [1] is antibody producing Chinese Hamster Ovary (CHO) cells (Subclone DG44). Put plainly: Experiment 1: cell growth (VCD) in TC-42 media, cysteine/cystine or leucine replaced by dipeptides. Conditions: for maximum cell densities (max. VCD) / Viable cell densities (VCD): TC-42 media of table 2; for cell growth performance compared with reference medium (FIG. 1): same molar amount of cysteine and cystine in the form of dipeptides. Format: cell-based. On the set-up: Viable cell densities (VCD) / maximum cell densities (max. VCD): unit not given here. From the text: The influence of the L-lysine dipeptides on the growth of antibody producing Chinese Hamster Ovary (CHO) cells (Subclone DG44; Life Technologies Cooperation, Carslbad, USA) in comparison to media containing either the corresponding free amino acids or the corresponding L-alanine dipeptides was investigated. For this purpose, the cells were cultivated in a TC-42 media produced by Xell AG, Bielefeld, Germany in which the amino acids provided within the experiments by dipeptides were lacking. The concentrations of these amino acids were adjusted in such a way that, taking into account a complete hydrolysis of the dipeptides into the amino acids, the concentration of all amino acids were the same in all media tested within this experiment. […] Experiment 1: Comparison of the Cell Growths Obtained with TC-42 media in which L-cysteine/L-cystine is replaced by bis-L-alanyl-L-cystine, bis-L-prolyl-L-cystine or bis-L-lysyl-L-cystine and L-leucine is replaced by […] For this experiment a TC-42 media produced by Xell AG, Bielefeld, Germany in which […]-cystine and L-leucine were deliberately left out of the initial formulation. […] [table]

Data set [2] is described as follows: Solubility found for Lys-Xxx dipeptides. Conditions: for Solubility Lys-Xxx found: as hydrochloride or as acetate (footnotes 6, 7).
In data set [3] the test system is antibody producing Chinese Hamster Ovary (CHO) cells (Subclone DG44). Put plainly: Antibody production (final antibody titer) in TC-42 media. Format: cell-based. The settings on record: compared with cells cultured in reference media; 24 days (FIG. 4). The text has this:
FIG. 4 depicts the final antibody titer with TC-42 media obtained with oligopeptides according to the invention.
(§1) The influence of the L-lysine dipeptides on the growth of antibody producing Chinese Hamster Ovary (CHO) cells (Subclone DG44; Life Technologies Cooperation, Carslbad, USA) in comparison to media containing either the corresponding free amino acids or the corresponding L-alanine dipeptides was investigated. For this purpose, the cells were cultivated in a TC-42 media produced by Xell AG, Bielefeld, Germany in which the amino acids provided within the experiments by dipeptides were lacking. The concentrations of these amino acids were adjusted in such a way that, taking into account a complete hydrolysis of the dipeptides into the amino acids, the concentration of all amino acids were the same in all media tested within this experiment.
Additionally, the effect on antibody production was analysed comparing cells cultured in reference media and cells growing in a media containing the dipeptides bis-alanyl-L-cystine or […] for 24 days (FIG. 4).

The target in a further data set is plasmin (Homo sapiens, UniProt P00747). The settings on record: Chemical & Pharmaceutical Bulletin 22, 2680 (1974); cited from earlier work.
For data set [4], the system named is antibody producing Chinese Hamster Ovary (CHO) cells (Subclone DG44). The experiment in a line: Experiment 3: cell growth (VCD) in TC-42 media, L-valine or L-isoleucine replaced by lysyl dipeptides. Format: cell-based. Set-up: Viable cell densities (VCD) / maximum cell densities (max VCD): unit: 10^6 cells/ml.
From the text: as §1
Starting from a preparatory culture an initial viable cell density (VCD) of 0.3·10^6 cells/ml was adjusted in shaking flasks by adding the test media. After 2-4 days a part of the cell culture was transferred into a new shaking flask and an initial viable cell density (VCD) of 0.3.10^6 cells/ml was adjusted by adding new test media. This was done two times and then the cell growth was followed by measuring the viable cell density (VCD) for up to 24 days.
Experiment 3: Comparison of the Cell Growths obtained with TC-42 media in which L-valine and L-isoleucine, respectively, are replaced by L-lysyl-L-valine and L-lysyl-L-isoleucine, respectively.
For this experiment a TC-42 media produced by Xell AG, Bielefeld, Germany in which L-lysine, L-valine and L-isoleucine were lacking was used. These amino acids and the dipeptides L-lysyl-L-valine and L-lysyl-L-isoleucine, respectively, were then added to the test media in the concentration listed in table 6.

For data set [5] the following is noted: cited from earlier work.

The text below walks through data of US20190390161A1, “CULTURE MEDIUM COMPRISING OLIGOPEPTIDES” (Evonik Degussa GmbH, priority 2017, published 2019).

Marks after values point to notes of the source that are not given here. Bridge positions count the residues as written; N and C are the ends. Peptide text beside a SMILES is read from it. I, II: the chains in the order shown.

Sequence of plasmin (P00747 581-810 limits assumed, species assumed): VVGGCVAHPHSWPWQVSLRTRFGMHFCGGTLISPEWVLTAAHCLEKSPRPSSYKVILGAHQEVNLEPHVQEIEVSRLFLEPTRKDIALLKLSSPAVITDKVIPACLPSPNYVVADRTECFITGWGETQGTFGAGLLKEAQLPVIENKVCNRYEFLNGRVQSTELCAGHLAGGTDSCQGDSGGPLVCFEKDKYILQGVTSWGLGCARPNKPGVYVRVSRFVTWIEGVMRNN
Sequence of plasmin (P00747 97-580 partner limits assumed, species assumed): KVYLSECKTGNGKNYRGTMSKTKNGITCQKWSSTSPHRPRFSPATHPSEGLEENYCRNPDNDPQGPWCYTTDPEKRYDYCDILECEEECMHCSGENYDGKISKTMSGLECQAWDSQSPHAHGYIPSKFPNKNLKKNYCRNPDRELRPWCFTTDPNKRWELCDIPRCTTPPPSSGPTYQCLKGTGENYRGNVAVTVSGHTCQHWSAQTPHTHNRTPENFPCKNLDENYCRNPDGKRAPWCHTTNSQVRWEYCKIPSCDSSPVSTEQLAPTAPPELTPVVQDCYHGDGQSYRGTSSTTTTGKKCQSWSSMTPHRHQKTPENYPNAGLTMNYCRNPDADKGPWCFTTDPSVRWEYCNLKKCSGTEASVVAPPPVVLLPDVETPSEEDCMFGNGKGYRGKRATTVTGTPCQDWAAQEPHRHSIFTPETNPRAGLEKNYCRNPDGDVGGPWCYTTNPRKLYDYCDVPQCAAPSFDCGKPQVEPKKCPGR

Take `NCCCC[C@H](N)C(=O)N[C@@H](CSSC[C@H](NC(=O)[C@@H](N)CCCCN)C(=O)O)C(=O)O` [Lys2-Cyss, Bis-L-lysyl-L-cystine × 4HCl] (I: H-Lys-Cys-OH / II: H-Lys-Cys-OH; disulfide I:2-II:2): in data set [1], the “maximum cell densities (max. VCD)” value was 14.16. The “Viable cell densities (VCD)” value in data set [1] (Time 0.0) worked out at 0.31; in data set [1] (Time 0.7) it was 0.39; in data set [1] (Time 2.0) it was 0.54; in data set [1] (Time 2.7), 0.83; in data set [1] (Time 3.6), 1.02; in data set [1] (Time 3.7), 0.39. Besides, the “Viable cell densities (VCD)” value in data set [1] (Time 4.7) turned out to be 0.62; in data set [1] (Time 5.8), 1.18; in data set [1] (Time 6.7), 1.98; in data set [1] (Time 6.8), 0.30; in data set [1] (Time 7.8), 0.43; in data set [1] (Time 8.7) it was 0.98. For the same compound, the “Viable cell densities (VCD)” value in data set [1] (Time 9.7) is on record as 1.82; in data set [1] (Time 10.6) it was 2.88; in data set [1] (Time 11.6), 4.75; in data set [1] (Time 12.8) it was 6.68; in data set [1] (Time 13.6) it was 9.20; in data set [1] (Time 15.0) it was 11.93. The “Viable cell densities (VCD)” value in data set [1] (Time 15.9) is 13.66; in data set [1] (Time 16.7), 13.41; in data set [1] (Time 17.8) it was 14.16; in data set [1] (Time 18.7) it was 14.15. Besides, in data set [1], the “cell growth performance compared with reference medium (FIG. 1)” value was “performance comparable to bis-alanyl-L-cystine”. Further, the “Solubility Lys-Xxx found” value in data set [2] is listed as >500 ^6) g/1000 g solution. Also, in data set [2] (hydrochloride), the solubility found is on record as > 50 % (w/w). Besides, the “antibody production increased by” value in data set [3] is about 50%.

For the compound `CC(=O)O.CC(C)C[C@H](NC(=O)[C@@H](N)CCCCN)C(=O)O` [Lys-Leu, L-Lysyl-L-leucine acetat] (H-Lys-Leu-OH), in data set [1], the “maximum cell densities (max. VCD)” value was found to be 12.43. Moreover, the “Viable cell densities (VCD)” value in data set [1] (Time 0.0) stood at 0.33; in data set [1] (Time 0.7) it was 0.39; in data set [1] (Time 2.0) it was 0.59; in data set [1] (Time 2.7), 0.81; in data set [1] (Time 3.6), 0.92; in data set [1] (Time 3.7), 0.34. In addition, the “Viable cell densities (VCD)” value in data set [1] (Time 4.7) came to 0.56; in data set [1] (Time 5.8) it was 0.94; in data set [1] (Time 6.7) it was 1.40; in data set [1] (Time 6.8), 0.30; in data set [1] (Time 7.8) it was 0.45; in data set [1] (Time 8.7), 0.79. Besides, the “Viable cell densities (VCD)” value is listed as 1.24 in data set [1] (Time 9.7); 1.81 in data set [1] (Time 10.6); 2.38 in data set [1] (Time 11.6); 3.12 in data set [1] (Time 12.8); 3.66 in data set [1] (Time 13.6); 4.52 in data set [1] (Time 15.0). The “Viable cell densities (VCD)” value in data set [1] (Time 15.9) was determined as 5.47; in data set [1] (Time 16.7) it was 6.10; in data set [1] (Time 17.8) it was 6.03; in data set [1] (Time 18.7) it was 7.23; in data set [1] (Time 19.9) it was 10.51; in data set [1] (Time 20.7), 12.43. For the same compound, the “Viable cell densities (VCD)” value in data set [1] (Time 21.8) is 12.15; in data set [1] (Time 22.8) it was 11.82. The “Solubility Lys-Xxx found” value in data set [2] is >330 ^7) g/1000 g solution. In addition, the “cleavage (hydrolysis) by plasmin” value on plasmin is recorded as “none of these peptides were cleaved”.

Turning to `CC(C)[C@H](NC(=O)[C@@H](N)CCCCN)C(=O)O` [Lys-Val, L-Lysyl-L-valine] (H-Lys-Val-OH), in data set [2], the “Solubility Lys-Xxx found” value is reported as >400 ^6) g/1000 g solution. In addition, the “maximum cell densities (max VCD)” value in data set [4] (TC-42 media of table 6) was 17.25. For the same compound, the “Viable cell densities (VCD)” value in data set [4] (Time 0.0, TC-42 media of table 6) is recorded as 0.43; in data set [4] (Time 2.8, TC-42 media of table 6) it was 2.04; in data set [4] (Time 3.0, TC-42 media of table 6), 0.50; in data set [4] (Time 6.8, TC-42 media of table 6), 4.37; in data set [4] (Time 6.9, TC-42 media of table 6) it was 0.39; in data set [4] (Time 7.9, TC-42 media of table 6), 0.61. Moreover, the “Viable cell densities (VCD)” value in data set [4] (Time 8.8, TC-42 media of table 6) was 1.15; in data set [4] (Time 9.8, TC-42 media of table 6) it was 2.07; in data set [4] (Time 10.8, TC-42 media of table 6), 3.35; in data set [4] (Time 11.8, TC-42 media of table 6), 5.79; in data set [4] (Time 12.9, TC-42 media of table 6) it was 8.34; in data set [4] (Time 13.8, TC-42 media of table 6), 11.08. Further, the “Viable cell densities (VCD)” value in data set [4] (Time 14.8, TC-42 media of table 6) was 15.45; in data set [4] (Time 15.9, TC-42 media of table 6), 16.84; in data set [4] (Time 16.9, TC-42 media of table 6), 17.25; in data set [4] (Time 17.9, TC-42 media of table 6) it was 16.27; in data set [4] (Time 18.8, TC-42 media of table 6), 14.62. In data set [4] (equimolar amounts), the “growth curve and maximum cell density compared with reference medium (FIG. 3)” value is reported as “almost matching those of the reference medium”.

As for “Bis-L-alanyl-L-cystine [Ala2-Cyss, reference compound]”, the “maximum cell densities (max. VCD)” value in data set [1] worked out at 15.06. For the same compound, the “Viable cell densities (VCD)” value in data set [1] (Time 0.0) is 0.26; in data set [1] (Time 0.7), 0.42; in data set [1] (Time 2.0), 0.47; in data set [1] (Time 2.7), 0.67; in data set [1] (Time 3.6), 0.84; in data set [1] (Time 3.7) it was 0.36. The “Viable cell densities (VCD)” value is 0.71 in data set [1] (Time 4.7); 1.52 in data set [1] (Time 5.8); 2.34 in data set [1] (Time 6.7); 0.32 in data set [1] (Time 6.8); 0.48 in data set [1] (Time 7.8); 1.06 in data set [1] (Time 8.7). The “Viable cell densities (VCD)” value in data set [1] (Time 9.7) came to 1.79; in data set [1] (Time 10.6), 3.19; in data set [1] (Time 11.6), 4.89; in data set [1] (Time 12.8), 7.65; in data set [1] (Time 13.6), 10.01; in data set [1] (Time 15.0), 11.62. Besides, the “Viable cell densities (VCD)” value in data set [1] (Time 15.9) is listed as 15.06; in data set [1] (Time 16.7), 14.38; in data set [1] (Time 17.8), 14.05; in data set [1] (Time 18.7), 14.28. The “cell growth performance compared with reference medium (FIG. 1)” value in data set [1] was “the cells were able to utilize the peptides for growth”. Moreover, the “Solubility Ala-Xxx” value in data set [5] (Degussa product brochure, cystine value WO 2011/133902) is recorded as 8.7 ^2) g/1000 g solution. Also, the solubility in data set [5] (prior art values, background) is 15.3 g/ltr. The “antibody production increased by” value in data set [3] was “at least 30%”.

Regarding Lys-Lys [reference compound], the “cleavage (hydrolysis) by plasmin” value on plasmin is “none of these peptides were cleaved”.
